From PMC9877316, “Identification of a novel P2X7 antagonist using structure-based virtual screening” (Frontiers in Pharmacology, 2023)
Values after ≈ are worked out from the molar mass of the structure shown.

Legend:
[1] = biological target: T1, rat P2X7 (Rattus norvegicus, UniProt Q64663); assay: ATP/BzATP-induced YoPro-1 dye uptake assay, rat P2X7; assay type: cell-based
T1 construct: expressed in transfected cells; host or cells: HEK-293 cells stably expressing rat P2X7-GFP (patch clamp)
T1 sequence (Q64663 1-595): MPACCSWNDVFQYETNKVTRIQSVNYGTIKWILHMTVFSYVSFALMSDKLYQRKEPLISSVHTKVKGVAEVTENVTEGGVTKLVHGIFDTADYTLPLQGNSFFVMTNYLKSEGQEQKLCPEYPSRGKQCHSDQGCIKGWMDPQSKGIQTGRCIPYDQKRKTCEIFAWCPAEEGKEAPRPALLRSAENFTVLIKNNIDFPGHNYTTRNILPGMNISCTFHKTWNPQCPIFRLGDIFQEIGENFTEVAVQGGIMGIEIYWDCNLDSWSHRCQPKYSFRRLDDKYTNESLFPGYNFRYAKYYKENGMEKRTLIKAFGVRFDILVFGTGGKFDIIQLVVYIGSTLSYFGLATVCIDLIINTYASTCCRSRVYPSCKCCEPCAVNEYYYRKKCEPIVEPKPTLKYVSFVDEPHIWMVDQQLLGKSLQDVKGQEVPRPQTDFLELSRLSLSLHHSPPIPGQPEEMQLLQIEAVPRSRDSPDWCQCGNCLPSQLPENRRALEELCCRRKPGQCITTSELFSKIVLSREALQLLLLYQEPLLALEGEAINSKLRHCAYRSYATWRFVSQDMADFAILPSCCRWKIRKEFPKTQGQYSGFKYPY
Experimental: 1321N1 astrocytoma cells and HEK-293 cells were cultured (at 37°C, 5% CO2) in Dulbecco’s modified Eagle’s medium (DMEM/F-12 with Glutamax) supplemented with 10% foetal bovine serum (FBS) and 200 unit/ml of penicillin and streptomycin antibiotics (Fisher Scientific). For stable cell line generation, cells were transfected using FuGene HD Transfection Reagent (Promega) according to the manufacturer’s protocol with plasmids encoding either human P2X4 with a C-terminal (His)10 tag ([Young et al., 2008]), human P2X7 with a C-terminal EYMPME tag (kindly provided by R.A. North) or rat P2X7 C-terminally tagged with a GFP-(His)8 tag, generated by PCR amplification of the coding sequence for rat P2X7 from a pcDNA-based expression vector ([Young et al., 2007]), adding XhoI and EcoRI sites at the 5′- and 3′- ends respectively, followed by restriction digestion and ligation into a zebrafish P2X4-GFP expression vector based on pEGFP-C1 (kindly provided by Eric Gouaux; [Kawate and Gouaux, 2006]) to replace the zebrafish P2X4 coding region with rP2X7. Transfected clones were grown in DMEM/F-12 with Glutamax medium supplemented with G-418 (Geneticin®, Fisher Scientific), 600 μg/ml and 150 μg/ml during selection and maintenance respectively. […] HEK-293 cells stably expressing human P2X7 ([Adinolfi et al., 2010]) were a kind gift from Elena Adinolfi.
Cells were plated as for the calcium influx assay (Section 2.4). Culture medium was replaced with low divalent cation containing extracellular solution (ECS-LD; 147 mM NaCl, 10 mM HEPES, 13 mM Glucose, .2 mM CaCl2, 2 mM KCl. pH = 7.4 in MilliQ water) and 5 μM Yopro-1. […] The baseline was measured with a BMG Clariostar instrument for 5–10 cycles, followed by addition of ATP (or BzATP) and recording for at least 30 further cycles (approx. 1 min per data point). The collected responses were normalized to the first data-point recorded after ATP addition. The initial gradient of the dye uptake curve was used to calculate the response to ATP.
(§1) In order to confirm GP-25 as a competitive (orthosteric) antagonist, BzATP concentration-response curves (ranging between 300 μM and .03 µM) were constructed for rat P2X7-GFP in the YoPro-1 uptake assay in the presence of increasing concentrations of GP-25 (Figure 3A).

[2] = biological target: T2, rat P2X7-GFP (Rattus norvegicus, UniProt Q64663); assay: Whole-cell patch clamp electrophysiology; assay type: cell-based
T2 construct: expressed in transfected cells; host or cells: HEK-293 cells stably expressing rat P2X7-GFP (patch clamp)
T2 sequence (Q64663 1-595): T1 sequence (Q64663 1-595)
Experimental: Whole-cell patch-clamp traces were recorded at room temperature using patch pipettes pulled from borosilicate glass (World Precision Instruments, Sarasota, FL, United States). Pipettes were filled with internal solution (IS) containing (in mM): 145 NaCl, 10 EGTA and 10 HEPES, with the pH adjusted to 7.3 with NaOH and had resistances of 3–5 MΩ. Cells were constantly perfused in a bath with ECS-LD. Currents were recorded at a holding membrane potential of −60 mV using an Axon Instruments Axopatch Multiclamp 700A amplifier and Digidata 1322A A/D interface (Molecular Devices, Sunnyvale, CA, United States). […] ATP applications were made at 90-s intervals. Solutions were applied to patch-clamped cells with the help of a rapid perfusion system (RSC-160, Biologic, Claix, France), allowing solution exchange times in the range […].
as §1

[3] = system: HEK-293; assay: CellTiter-Blue cell viability assay; assay type: cell-based, human; conditions: 30 µM compound; 24 h incubation; HEK-293 wild-type
Experimental: To assess hit compound toxicity, CellTiter-Blue Cell Viability Assay (Promega, Southampton, United Kingdom) was used as recommended by the manufacturer on not transfected HEK-293. Cells were seeded in 96-well plates (100 μL at a concentration of 30–35,000 cells/ml) in culture media and a day later media was replaced with 100 µL fresh media containing 30 µM of tested compounds (10 µM of A740003). After 24 h incubation at 37 °C, 5% CO2, 20 µL of CellTiter Blue reagent was added to each well and incubated for 3 h at 37°C. Fluorescence was then measured with a BMG Clariostar using excitation/emission wavelengths of 560/590 nm. Data were normalized to vehicle control-treated cells (.1% DMSO).

[4] = Solubility observations; assay type: physicochemical; conditions: read-out: maximum concentration that could be applied (due to solubility issues)

COC(=O)C1=C(C)NC2=C(C(=O)c3ccccc32)C1c1cc(Br)ccc1OCC(=O)O (centres unmarked) [Compound 9, (4-bromo-2-(3-(methoxycarbonyl)-2-methyl-5-oxo-4,5-dihydro-1H-indeno(1,2-b)pyridine-4-yl)phenoxy)acetic acid]
Schild plot slope ([1]; BzATP concentration-response curves, rat P2X7-GFP, increasing GP-25 up to 100 µM): 1.004 ± .2584
mode of antagonism (Schild analysis) ([1]; BzATP, rat P2X7-GFP, YoPro-1): competitive (orthosteric) antagonism
IC50 ([1]; YoPro-1 uptake, 300 µM ATP): 24.4 µM
inhibition at 30 µM ([1]; approx. % inhibition at 30 μM compound, 300 µM ATP, YoPro-1 uptake, rat P2X7-GFP, read-out: % Inhibition at rP2X7): 47%
reduction in P2X7 activity at 25 µM ([2]; 25 µM compound, patch clamp): statistically significant reduction
inhibition of ATP-evoked currents ([2]; GP-25 pre-applied for 2 min, 300 µM ATP, HEK-293 cells): concentration-dependent inhibition
cell viability [3]: did not significantly reduce cell viability
solubility [4]: 100 µM (≈ 48.4 µg/mL)
